Measurements reported in US9580444B2, “Polycyclic pyrazolinone derivative and herbicide comprising same as effective component thereof” (priority 2013, dated 2017).

Assays:
Assay type in all cases: in vivo
[1] = tested on: Cyperus difformis (smallflower umbrella plant); experiment: Test Example-1: herbicidal effect by a treatment before weeds are generated under submerged conditions; conditions: 500 g a.i/ha, pre-emergence treatment, about 15 days after treatment, score 0-5
Method in brief: (§1)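 This is a pre-emergence test under flooding: compound formulations were applied into the water at a set dosage on the day weeds were sown in puddled paddy soil. Weed control was rated on a six-step 0–5 scale roughly 15 days later.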

[2] = tested on: Echinochloa oryzicola (barnyard grass); experiment: as above; conditions: 500 g a.i/ha, pre-emergence treatment, about 15 days after treatment, score 0-5
Method in brief: as §1

[3] = tested on: Eleocharis acicularis (needle spikerush); experiment: as above; conditions: 500 g a.i/ha, pre-emergence treatment, about 15 days after treatment, score 0-5
Method in brief: as §1

[4] = tested on: Monochoria vaginalis (monochoria); experiment: as above; conditions: 500 g a.i/ha, pre-emergence treatment, about 15 days after treatment, score 0-5
Method in brief: as §1

[5] = tested on: Scirpus juncoides (bulrush); experiment: as above; conditions: 500 g a.i/ha, pre-emergence treatment, about 15 days after treatment, score 0-5
Method in brief: as §1

[6] = tested on: other annual broad leaf weeds (Lindernia procumbens, Rotala indica, Elatine triandra); experiment: as above; conditions: 500 g a.i/ha, pre-emergence treatment, about 15 days after treatment, score 0-5
Method in brief: as §1

[7] = tested on: Abutilon theophrasti (velvetleaf); experiment: Test Example-4: herbicidal effect by a foliage treatment after weeds are generated under upland field conditions; conditions: 500 g a.i/ha, foliage treatment after emergence, about 14 days after treatment, score 0-5
Excerpt: (§2) Using the formulation prepared according to the methods described above, the herbicidal effect of the bicyclic pyrazolinone derivative of the invention according to the methods shown in Test Examples below was examined. The herbicidal effect with respect to the test weeds or the phytotoxicity with respect to the test crops was examined according to the following criteria, and evaluated in six stage scores of 0 to 5. A vat having an area of 65 cm^2 and a depth of 2 cm was filled with upland soil, then, seeds of Amaranthus viridis (green amaranthus), Abutilon theophrasti (velvetleaf), Chenopodium album (common lambsquarters), […]. While watering was suitably performed on there, the seeds were grown for 14 days. A wettable powder or an emulsifiable concentrate of the compound of the present invention prepared according to Formulation Example was diluted, and a spray treatment was uniformly performed on the foliage portion of the plant so as to be a predetermined dosage in the amount of water of 4000 L per hectare. The herbicidal effect with respect to the test weeds and the phytotoxicity with respect to corn about 14 days after the treatment were evaluated according to the evaluation criteria in six stages of 0 to 5 described above.

[8] = tested on: Amaranthus viridis (green amaranthus); experiment: as above; conditions: 500 g a.i/ha, foliage treatment after emergence, about 14 days after treatment, score 0-5
Excerpt: as §2

[9] = tested on: Chenopodium album (common lambsquarters); experiment: as above; conditions: 500 g a.i/ha, foliage treatment after emergence, about 14 days after treatment, score 0-5
Excerpt: as §2

[10] = tested on: corn; experiment: Test Example-4: phytotoxicity by a foliage treatment after weeds are generated under upland field conditions; conditions: 500 g a.i/ha, foliage treatment after emergence, about 14 days after treatment, score 0-5
Excerpt: as §2

SMILES | Herbicidal effect Cyperus difformis [1] | Herbicidal effect Echinochloa oryzicola [2] | Herbicidal effect Eleocharis acicularis [3] | Herbicidal effect Monochoria vaginalis [4] | Herbicidal effect Scirpus juncoides [5] | Herbicidal effect Broadleaf weed [6] | Herbicidal effect Abutilon theophrast [7] | Herbicidal effect Amaranthus viridis [8] | Herbicidal effect Chenopodium album [9] | Phytotoxicity Corn [10]
O=c1c(-c2cc(OCC3CC3)c(Cl)cc2F)c(Cl)n2n1CCCC2 [Example 1-176] | 5 (Herbicidal effect/phytotoxicity was 90% or greater) | 5 (Herbicidal effect/phytotoxicity was 90% or greater) | 5 (Herbicidal effect/phytotoxicity was 90% or greater) | 5 (Herbicidal effect/phytotoxicity was 90% or greater) | 5 (Herbicidal effect/phytotoxicity was 90% or greater) | 5 (Herbicidal effect/phytotoxicity was 90% or greater) | 5 (Herbicidal effect/phytotoxicity was 90% or greater) | 5 (Herbicidal effect/phytotoxicity was 90% or greater) | 5 (Herbicidal effect/phytotoxicity was 90% or greater) | 2 (Herbicidal effect/phytotoxicity was 30% to 50%)
N#CCOc1cc(-c2c(Cl)n3n(c2=O)CCCC3)c(F)cc1Cl [Example 1-171] | 5 (Herbicidal effect/phytotoxicity was 90% or greater) | 5 (Herbicidal effect/phytotoxicity was 90% or greater) | 5 (Herbicidal effect/phytotoxicity was 90% or greater) | 5 (Herbicidal effect/phytotoxicity was 90% or greater) | 5 (Herbicidal effect/phytotoxicity was 90% or greater) | 5 (Herbicidal effect/phytotoxicity was 90% or greater) | 5 (Herbicidal effect/phytotoxicity was 90% or greater) | 5 (Herbicidal effect/phytotoxicity was 90% or greater) | 5 (Herbicidal effect/phytotoxicity was 90% or greater) | 3 (Herbicidal effect/phytotoxicity was 50% to 70%)
C#CCOc1cc(-c2c(Cl)n3n(c2=O)CCCC3)c(F)cc1F [Example 1-113] | 5 (Herbicidal effect/phytotoxicity was 90% or greater) | 5 (Herbicidal effect/phytotoxicity was 90% or greater) | 5 (Herbicidal effect/phytotoxicity was 90% or greater) | 5 (Herbicidal effect/phytotoxicity was 90% or greater) | 5 (Herbicidal effect/phytotoxicity was 90% or greater) | 5 (Herbicidal effect/phytotoxicity was 90% or greater) | 5 (Herbicidal effect/phytotoxicity was 90% or greater) | 5 (Herbicidal effect/phytotoxicity was 90% or greater) | 5 (Herbicidal effect/phytotoxicity was 90% or greater) | 3 (Herbicidal effect/phytotoxicity was 50% to 70%)
COc1cc(-c2c(Cl)n3n(c2=O)CCCC3)c(F)cc1Cl [Example 1-140] | 5 (Herbicidal effect/phytotoxicity was 90% or greater) | 5 (Herbicidal effect/phytotoxicity was 90% or greater) | 5 (Herbicidal effect/phytotoxicity was 90% or greater) | 5 (Herbicidal effect/phytotoxicity was 90% or greater) | 5 (Herbicidal effect/phytotoxicity was 90% or greater) | 5 (Herbicidal effect/phytotoxicity was 90% or greater) | 5 (Herbicidal effect/phytotoxicity was 90% or greater) | 5 (Herbicidal effect/phytotoxicity was 90% or greater) | 5 (Herbicidal effect/phytotoxicity was 90% or greater) | 2 (Herbicidal effect/phytotoxicity was 30% to 50%)
O=c1c(-c2cc(NS(=O)(=O)c3ccccc3Cl)c(Cl)cc2F)c(Cl)n2n1CCCC2 [Example 5-63] | – | – | – | – | – | – | 5 (Herbicidal effect/phytotoxicity was 90% or greater) | 5 (Herbicidal effect/phytotoxicity was 90% or greater) | 5 (Herbicidal effect/phytotoxicity was 90% or greater) | 0 (Herbicidal effect/phytotoxicity was 0% to 10%)
CCCOC(=CC(=O)OCC)COc1cc(-c2c(Cl)n3n(c2=O)CCCC3)c(F)cc1Cl (mixture of isomers) [Example 2-20] | – | – | – | – | – | – | 5 (Herbicidal effect/phytotoxicity was 90% or greater) | 5 (Herbicidal effect/phytotoxicity was 90% or greater) | 5 (Herbicidal effect/phytotoxicity was 90% or greater) | 0 (Herbicidal effect/phytotoxicity was 0% to 10%)
Nc1cc(-c2c(Cl)n3n(c2=O)CCCC3)c(F)cc1Cl [Example 5-11] | – | – | – | – | – | – | 5 (Herbicidal effect/phytotoxicity was 90% or greater) | 5 (Herbicidal effect/phytotoxicity was 90% or greater) | 5 (Herbicidal effect/phytotoxicity was 90% or greater) | 1 (Herbicidal effect/phytotoxicity was 10% to 30%)
C=CCOc1cc(C)ccc1Oc1cc(-c2c(Cl)n3n(c2=O)CCCC3)c(F)cc1Cl [Example 3-42] | – | – | – | – | – | – | 5 (Herbicidal effect/phytotoxicity was 90% or greater) | 5 (Herbicidal effect/phytotoxicity was 90% or greater) | 5 (Herbicidal effect/phytotoxicity was 90% or greater) | 0 (Herbicidal effect/phytotoxicity was 0% to 10%)
O=c1c(-c2cc([N+](=O)[O-])c(Cl)cc2F)c(C(F)(F)F)n2n1CCCC2 [Example 1-336] | – | – | – | – | – | – | 5 (Herbicidal effect/phytotoxicity was 90% or greater) | 5 (Herbicidal effect/phytotoxicity was 90% or greater) | 5 (Herbicidal effect/phytotoxicity was 90% or greater) | 0 (Herbicidal effect/phytotoxicity was 0% to 10%)
C=CCOc1cc(-c2c(Cl)n3n(c2=O)CCCC3)ccc1Cl [Example 1-59] | – | – | – | – | – | – | 5 (Herbicidal effect/phytotoxicity was 90% or greater) | 5 (Herbicidal effect/phytotoxicity was 90% or greater) | 5 (Herbicidal effect/phytotoxicity was 90% or greater) | 0 (Herbicidal effect/phytotoxicity was 0% to 10%)
